Experimental data as given in PubChem BioAssay AID1259407 (Chemical Carcinogenesis Research Information System (CCRIS), 2018).
Active and inactive are the calls of the source. No rule for the calls is given here.

System: CCRIS mutagenicity, Ames/micronucleus/aberration tests
Test: CCRIS mutagenicity studies
[1] = Test System: AMES SALMONELLA TYPHIMURIUM, Strain/Indicator: TA98, Metabolic Activation: RAT, LIVER, S-9, AROCLOR 1254, Method: PREINCUBATION
[2] = Test System: AMES SALMONELLA TYPHIMURIUM, Strain/Indicator: TA100, Metabolic Activation: RAT, LIVER, S-9, AROCLOR 1254, Method: PREINCUBATION
[3] = Test System: AMES SALMONELLA TYPHIMURIUM, Strain/Indicator: TA97, Metabolic Activation: NONE, Method: PREINCUBATION
[4] = Test System: AMES SALMONELLA TYPHIMURIUM, Strain/Indicator: TA98, Metabolic Activation: NONE, Method: PREINCUBATION
[5] = Test System: AMES SALMONELLA TYPHIMURIUM, Strain/Indicator: TA100, Metabolic Activation: NONE, Method: PREINCUBATION
[6] = Test System: AMES SALMONELLA TYPHIMURIUM, Strain/Indicator: TA1535, Metabolic Activation: NONE, Method: PREINCUBATION
[7] = Test System: AMES SALMONELLA TYPHIMURIUM, Strain/Indicator: TA1537, Metabolic Activation: NONE, Method: PREINCUBATION

Structure (SMILES): C[15NH][15N]=O
- mutagenic call (Test System: AMES SALMONELLA TYPHIMURIUM, Strain/Indicator: TA1535, Metabolic Activation: NONE, Method: STANDARD PLATE): active; positive
- mutagenic call (Test System: E. COLI, Strain/Indicator: WP2, Metabolic Activation: NONE, Method: STANDARD PLATE): active; positive
- mutagenic call (Test System: E. COLI, Strain/Indicator: WP2 UVRA, Metabolic Activation: NONE, Method: STANDARD PLATE): active; positive

Structure (SMILES): Cc1ccc2nc(N)[nH]c2c1
- mutagenic call [1]: active; positive
- mutagenic call [2]: inactive; negative

Structure (SMILES): ClCC(Cl)CCl
- mutagenic call (End Point: IN VITRO CHROMOSOMAL ABERRATIONS, Test System: CHL CELLS, Metabolic Activation: NONE): inactive; negative
- mutagenic call (End Point: IN VITRO CHROMOSOMAL ABERRATIONS, Test System: CHL CELLS, Metabolic Activation: RAT, LIVER, S-9, SODIUM PHENOBARBITAL AND 5,6-BENZOFLAVONE): active; positive (structural changes)
- mutagenic call (Test System: AMES SALMONELLA TYPHIMURIUM, Strain/Indicator: TA97, Metabolic Activation: HAMSTER, LIVER, S-9, AROCLOR 1254 (10%), Method: PREINCUBATION): active; positive
- mutagenic call [3]: inactive; negative
- mutagenic call (Test System: AMES SALMONELLA TYPHIMURIUM, Strain/Indicator: TA97, Metabolic Activation: RAT, LIVER, S-9, AROCLOR 1254 (10%), Method: PREINCUBATION): active; positive
- mutagenic call (Test System: AMES SALMONELLA TYPHIMURIUM, Strain/Indicator: TA98, Metabolic Activation: HAMSTER, LIVER, S-9, AROCLOR 1254 (10%), Method: PREINCUBATION): active; positive
- mutagenic call (Test System: AMES SALMONELLA TYPHIMURIUM, Strain/Indicator: TA98, Metabolic Activation: HAMSTER, LIVER, S-9, AROCLOR 1254, Method: PREINCUBATION): inactive; negative
- mutagenic call [4]: inactive; negative
- mutagenic call [1]: inactive; negative
- mutagenic call (Test System: AMES SALMONELLA TYPHIMURIUM, Strain/Indicator: TA100, Metabolic Activation: HAMSTER, LIVER, S-9, AROCLOR 1254 (10%), Method: PREINCUBATION): active; positive
- mutagenic call (Test System: AMES SALMONELLA TYPHIMURIUM, Strain/Indicator: TA100, Metabolic Activation: HAMSTER, LIVER, S-9, AROCLOR 1254, Method: PREINCUBATION): active; positive
- mutagenic call [5]: inactive; negative
- mutagenic call (Test System: AMES SALMONELLA TYPHIMURIUM, Strain/Indicator: TA100, Metabolic Activation: RAT, LIVER, MICROSOMES, PHENOBARBITAL, NADPH COFACTORS, Method: STANDARD PLATE): active; positive
- mutagenic call (Test System: AMES SALMONELLA TYPHIMURIUM, Strain/Indicator: TA100, Metabolic Activation: RAT, LIVER, MICROSOMES, PHENOBARBITAL, Method: STANDARD PLATE): inactive; negative
- mutagenic call (Test System: AMES SALMONELLA TYPHIMURIUM, Strain/Indicator: TA100, Metabolic Activation: RAT, LIVER, S-9, AROCLOR 1254 (10%), Method: PREINCUBATION): active; positive
- mutagenic call [2]: active; positive
- mutagenic call (Test System: AMES SALMONELLA TYPHIMURIUM, Strain/Indicator: TA1535, Metabolic Activation: HAMSTER, LIVER, S-9, AROCLOR 1254 (10%), Method: PREINCUBATION): active; positive
- mutagenic call (Test System: AMES SALMONELLA TYPHIMURIUM, Strain/Indicator: TA1535, Metabolic Activation: HAMSTER, LIVER, S-9, AROCLOR 1254, Method: PREINCUBATION): active; positive
- mutagenic call [6]: inactive; negative
- mutagenic call (Test System: AMES SALMONELLA TYPHIMURIUM, Strain/Indicator: TA1535, Metabolic Activation: RAT, LIVER, S-9, AROCLOR 1254 (10%), Method: PREINCUBATION): active; positive
- mutagenic call (Test System: AMES SALMONELLA TYPHIMURIUM, Strain/Indicator: TA1535, Metabolic Activation: RAT, LIVER, S-9, AROCLOR 1254, Method: PREINCUBATION): active; positive
- mutagenic call (Test System: AMES SALMONELLA TYPHIMURIUM, Strain/Indicator: TA1537, Metabolic Activation: HAMSTER, LIVER, S-9, AROCLOR 1254 (10%), Method: PREINCUBATION): inactive; negative
- mutagenic call [7]: inactive; negative
- mutagenic call (Test System: AMES SALMONELLA TYPHIMURIUM, Strain/Indicator: TA1537, Metabolic Activation: RAT, LIVER, S-9, AROCLOR 1254 (10%), Method: PREINCUBATION): inactive; negative
- mutagenic call (Test System: AMES SALMONELLA TYPHIMURIUM, Strain/Indicator: TA1537, Metabolic Activation: RAT, LIVER, S-9, AROCLOR 1254, Method: PREINCUBATION): inactive; negative
- mutagenic call (Test System: MOUSE LYMPHOMA, Strain/Indicator: L5178Y (TK+/TK-), Metabolic Activation: NONE, Method: SUSPENSION/PLATE): inactive; negative
- mutagenic call (Test System: MOUSE LYMPHOMA, Strain/Indicator: L5178Y (TK+/TK-), Metabolic Activation: RAT, LIVER, S-9, AROCLOR 1254, Method: SUSPENSION/PLATE): active; positive

Structure (SMILES): CCOC(=O)CC(C)=O
- mutagenic call [3]: inactive; negative
- mutagenic call (Test System: AMES SALMONELLA TYPHIMURIUM, Strain/Indicator: TA97, Metabolic Activation: RAT, LIVER, S-9, AROCLOR 1254, Method: PREINCUBATION): inactive; negative
- mutagenic call [4]: inactive; negative
- mutagenic call (Test System: AMES SALMONELLA TYPHIMURIUM, Strain/Indicator: TA98, Metabolic Activation: RAT LIVER S-9, PHENOBARBITAL AND BETA-NAPHTHOFLAVONE, Method: PREINCUBATION): inactive; negative
- mutagenic call [5]: inactive; negative
- mutagenic call (Test System: AMES SALMONELLA TYPHIMURIUM, Strain/Indicator: TA100, Metabolic Activation: RAT LIVER S-9, PHENOBARBITAL AND BETA-NAPHTHOFLAVONE, Method: PREINCUBATION): inactive; negative
- mutagenic call (Test System: AMES SALMONELLA TYPHIMURIUM, Strain/Indicator: TA102, Metabolic Activation: NONE, Method: PREINCUBATION): inactive; negative
- mutagenic call (Test System: AMES SALMONELLA TYPHIMURIUM, Strain/Indicator: TA102, Metabolic Activation: RAT, LIVER, S-9, AROCLOR 1254, Method: PREINCUBATION): inactive; negative
- mutagenic call [6]: inactive; negative
- mutagenic call (Test System: AMES SALMONELLA TYPHIMURIUM, Strain/Indicator: TA1535, Metabolic Activation: RAT LIVER S-9, PHENOBARBITAL AND BETA-NAPHTHOFLAVONE, Method: PREINCUBATION): inactive; negative
- mutagenic call [7]: inactive; negative
- mutagenic call (Test System: AMES SALMONELLA TYPHIMURIUM, Strain/Indicator: TA1537, Metabolic Activation: RAT LIVER S-9, PHENOBARBITAL AND BETA-NAPHTHOFLAVONE, Method: PREINCUBATION): inactive; negative
- mutagenic call (Test System: AMES SALMONELLA TYPHIMURIUM, Strain/Indicator: TA1538, Metabolic Activation: NONE, Method: PREINCUBATION): inactive; negative
- mutagenic call (Test System: AMES SALMONELLA TYPHIMURIUM, Strain/Indicator: TA1538, Metabolic Activation: RAT LIVER S-9, PHENOBARBITAL AND BETA-NAPHTHOFLAVONE, Method: PREINCUBATION): inactive; negative
- mutagenic call (Test System: E.COLI, Strain/Indicator: WP2UVRA, Metabolic Activation: NONE, Method: PREINCUBATION): inactive; negative
- mutagenic call (Test System: E.COLI, Strain/Indicator: WP2UVRA, Metabolic Activation: RAT LIVER S-9, PHENOBARBITAL AND BETA-NAPHTHOFLAVONE, Method: PREINCUBATION): inactive; negative

Structure (SMILES): CC(=O)Nc1nc(-c2ccc([N+](=O)[O-])o2)cs1
- mutagenic call (Test System: AMES SALMONELLA TYPHIMURIUM, Strain/Indicator: TA100, Metabolic Activation: RAT, LIVER, S-9, KC500 OR PHENOBARBITAL, Method: LIQUID SUSPENSION): active; positive
- mutagenic call (Test System: E. COLI WP2, Strain/Indicator: WP2, Metabolic Activation: NONE, Method: SPOT): active; positive

Structure (SMILES): Cn1cnc2cc([N+](=O)[O-])ccc21
- mutagenic call (Test System: AMES SALMONELLA TYPHIMURIUM, Strain/Indicator: TA98, Metabolic Activation: NONE, Method: STANDARD PLATE): inactive; negative

Structure (SMILES): COc1cc2c(c3oc(=O)c4c(c13)[C@@H](O)CC4=O)[C@@H]1C=CO[C@@H]1O2
- mutagenic call (Test System: AMES SALMONELLA TYPHIMURIUM, Strain/Indicator: TA98, Metabolic Activation: HUMAN, LIVER, S-9, Method: STANDARD PLATE): inactive; negative
- mutagenic call (Test System: AMES SALMONELLA TYPHIMURIUM, Strain/Indicator: TA100, Metabolic Activation: HUMAN, LIVER, S-9, Method: STANDARD PLATE): inactive; negative
- mutagenic call (Test System: AMES SALMONELLA TYPHIMURIUM, Strain/Indicator: TA100, Metabolic Activation: NONE, Method: STANDARD PLATE): active; positive
- mutagenic call (Test System: AMES SALMONELLA TYPHIMURIUM, Strain/Indicator: TA100, Metabolic Activation: RAT, LIVER, S-9, AROCLOR 1254, Method: STANDARD PLATE): active; positive
